Consider 9 compounds from patent publication US12365696B2, “Small-molecule focal adhesion kinase (FAK) inhibitors” (DANA-FARBER CANCER INSTITUTE, INC., priority 2019, dated 2025).

Where only a bound is given, the exact number is not on record here.

One assay deals with PTK2 (FAK) (Homo sapiens (Human), UniProt Q05397). The experiment in a line: Z′-LYTE kinase assay (SelectScreen Biochemical Kinase Profiling), enzymatic IC50. Particulars: enzymatic, Z′-LYTE; read-out: FAK IC50. The method, then:
Enzymatic IC50 data was obtained through ThermoFisher Scientific SelectScreen™ Biochemical Kinase Profiling Service, using a Z′-LYTE™ kinase-specific assay, as described below.
The test compounds were screened in 1% dimethyl sulfoxide (DMSO) (final) in the well. For 10 point titrations, 3-fold serial dilutions were conducted from the starting concentration.
All peptide/kinase mixtures were diluted to a 2× working concentration in the appropriate kinase buffer (see section kinase specific assay conditions for a complete description).
All ATP solutions were diluted to a 4× working concentration in kinase buffer (50 mM 4-(2-hydroxyethyl)-1-piperazineethanesulfonic acid (HEPES) pH 7.5, 0.01% BRIJ-35, 10 mM MgCl2, 1 mM ethylene glycol-bis(β-aminoethyl ether)-N,N,N′,N′-tetraacetic acid (EGTA)). ATP Km apparent was previously determined using a Z′-LYTE assay.
The development reagent was diluted in development buffer (see section kinase-specific assay conditions—direct and cascade for a complete description).
Using a bar-coded Corning, low volume NBS, black 384-well plate (Corning Cat. #4514), 100 nL of 100× test compound in 100% DMSO was added. […] The plate was then shaken for 30 seconds and held at room temperature for a 60 minute kinase reaction incubation period. At which point 5 μL of development reagent solution was added and the plate was shaken for 30 seconds. The plate was held again at room temperature for a 60 minute development reaction incubation period and then read on a fluorescence plate reader and analyzed.
The 2×PTK2 (FAK)/Tyr 07 mixture was prepared in 50 mM HEPES pH 7.5, 0.01% BRIJ-35, 10 mM MgCl2, 1 mM EGTA. […] After the 1 hour kinase reaction incubation period, 5 μL of a 1:16 dilution of development reagent B was added.
SelectScreen Kinase Profiling Service uses XLfit from ID Business Solutions (IDBS). The dose response curve was curve fit to model number 205 (sigmoidal dose-response model).

In assay [1] the test system is MDA-MB-231 cells. The experiment in a line: 2D-adherent monolayer cell viability (Cell Titer-Glo), 120 hrs. The format is cell-based. Particulars: Homo sapiens. The procedure:
For 2D-adherent monolayer experiments, MDA-MB-231 cells were plated in 384-well format and allowed to adhere overnight. Cells were treated with indicated molecules from compound stock plates using a JANUS® Workstation pin tool for 120 hrs. To measure cell viability, Cell Titer-Glo® was added to wells for 15 minutes at room temperature and luminescence was measured on an EnVision™ 2104 Multilabel Plate Reader.
Inventive compound treatment (0.00063-20 μM) led to antiproliferative effects in MDA-MB-231 cells cultured as 2D-adherent monolayers or as ultra-low adherent 3D-spheroid suspensions (Table 5).

For assay [2], the system named is MDA-MB-231 cells. As to the kind of experiment: ultra-low adherent 3D-spheroid suspension cell viability (3D Cell Titer-Glo), 120 hours. The following applies: Homo sapiens. The format is cell-based. The procedure: For ultra-low adherent 3D-spheroid suspensions, MDA-MB-231 cells were plated in 384-well format in media containing 10% Matrigel® and allowed to form spheroids overnight. Cells were treated with indicated molecules from compound stock plates using a JANUS® Workstation pin tool for 120 hours. To measure cell viability, 3D Cell Titer-Glo® was added to wells for 15 minutes at room temperature and luminescence was measured on an EnVision™ 2104 Multilabel Plate Reader.
Background: ATP-based viability assays read luminescence as a measure of living cells.

In general, IC50 refers to the midpoint of a concentration-inhibition curve.

PTK2 (FAK), sequence (Q05397 whole entry): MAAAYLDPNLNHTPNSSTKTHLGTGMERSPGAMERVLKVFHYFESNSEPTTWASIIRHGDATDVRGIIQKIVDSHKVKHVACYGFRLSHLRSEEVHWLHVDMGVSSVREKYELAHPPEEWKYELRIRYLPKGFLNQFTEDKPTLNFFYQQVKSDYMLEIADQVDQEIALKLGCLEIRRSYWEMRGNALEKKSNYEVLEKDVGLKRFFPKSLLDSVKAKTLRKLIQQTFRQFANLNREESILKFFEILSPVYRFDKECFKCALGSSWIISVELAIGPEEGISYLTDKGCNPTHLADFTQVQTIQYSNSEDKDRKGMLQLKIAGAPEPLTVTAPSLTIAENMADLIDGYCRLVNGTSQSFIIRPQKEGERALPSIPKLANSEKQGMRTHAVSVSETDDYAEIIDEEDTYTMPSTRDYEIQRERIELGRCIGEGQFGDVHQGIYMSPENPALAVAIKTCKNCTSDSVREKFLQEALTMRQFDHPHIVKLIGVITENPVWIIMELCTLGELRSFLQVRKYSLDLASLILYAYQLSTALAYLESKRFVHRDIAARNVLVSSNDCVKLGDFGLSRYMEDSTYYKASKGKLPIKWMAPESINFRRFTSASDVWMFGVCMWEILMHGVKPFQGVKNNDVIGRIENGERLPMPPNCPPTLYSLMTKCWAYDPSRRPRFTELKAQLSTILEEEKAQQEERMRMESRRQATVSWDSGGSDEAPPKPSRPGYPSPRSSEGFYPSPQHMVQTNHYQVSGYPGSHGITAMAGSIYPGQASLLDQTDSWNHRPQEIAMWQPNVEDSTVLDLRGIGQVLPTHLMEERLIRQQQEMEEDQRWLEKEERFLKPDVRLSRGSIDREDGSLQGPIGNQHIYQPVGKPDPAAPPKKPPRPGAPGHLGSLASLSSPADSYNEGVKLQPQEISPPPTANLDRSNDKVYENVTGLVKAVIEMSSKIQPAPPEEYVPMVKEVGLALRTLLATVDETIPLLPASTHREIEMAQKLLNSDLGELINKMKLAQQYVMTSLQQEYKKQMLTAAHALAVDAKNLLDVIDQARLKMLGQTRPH

Turning to `COc1cc(N2CCN(CCO)CC2)ccc1Nc1ncc2c(n1)N(C)c1sc(C)nc1C(=O)N2C` [Compound 20, 6-((4-(4-(2-hydroxyethyl)piperazin-1-yl)-2-methoxyphenyl)amino)-2,4,9-trimethyl-4,9-dihydro-10H-pyrimido[5,4-b]thiazolo[5,4-e][1,4]diazepin-10-one], the IC50 on PTK2 (FAK) was 73.9 nM; in the assay on MDA-MB-231 cells [1], > 10 µM; in the assay with MDA-MB-231 cells [2], > 10 µM.
`CNC(=O)c1ccc(Nc2ncc3c(n2)N(C)c2sc(C)nc2C(=O)N3C)c(OC)c1` [Compound 21, 3-methoxy-N-methyl-4-((2,4,9-trimethyl-10-oxo-9,10-dihydro-4H-pyrimido[5,4-b]thiazolo[5,4-e][1,4]diazepin-6-yl)amino)benzamide]: the half-inhibitory concentration (IC50) at PTK2 (FAK) was 45.4 nM; in the assay with MDA-MB-231 cells [1], > 10 µM; in the assay with MDA-MB-231 cells [2], > 10 µM.
On to `COc1cc2c(cc1Nc1ncc3c(n1)N(C)c1sc(C)nc1C(=O)N3C)CN(C)CC2` [Compound 22, 6-((6-methoxy-2-methyl-1,2,3,4-tetrahydroisoquinolin-7-yl)amino)-2,4,9-trimethyl-4,9-dihydro-10H-pyrimido[5,4-b]thiazolo[5,4-e][1,4]diazepin-10-one], for which the half-maximal inhibitory concentration (IC50) is 37.8 nM at PTK2 (FAK), > 10 µM in the assay on MDA-MB-231 cells [1] and > 10 µM in the assay with MDA-MB-231 cells [2].
As to `Cc1nc2c(s1)N(C)c1nc(Nc3ccc4c(c3)CCC(=O)N4)ncc1N(C)C2=O` [Compound 23, 2,4,9-trimethyl-6-((2-oxo-1,2,3,4-tetrahydroquinolin-6-yl)amino)-4,9-dihydro-10H-pyrimido[5,4-b]thiazolo[5,4-e][1,4]diazepin-10-one], the half-inhibitory concentration (IC50) at PTK2 (FAK) is 670 nM; in the assay on MDA-MB-231 cells [1], > 10 µM; in the assay on MDA-MB-231 cells [2], > 10 µM.
With `COc1cc(C(=O)N2CCC(N3CCN(C)CC3)CC2)ccc1Nc1ncc2c(n1)N(C)c1sc(C)nc1C(=O)N2C` [Compound 28, 6-((2-methoxy-4-(4-(4-methylpiperazin-1-yl)piperidine-1-carbonyl)phenyl)amino)-2,4,9-trimethyl-4,9-dihydro-10H-pyrimido[5,4-b]thiazolo[5,4-e][1,4]diazepin-10-one], the 50% inhibitory concentration (IC50) on PTK2 (FAK) is 77.7 nM; in the assay on MDA-MB-231 cells [1], > 10 µM; with MDA-MB-231 cells [2], > 10 µM.
As for `CCN1C(=O)c2nc(C)sc2N(C)c2nc(Nc3ccc(N4CCC(N5CCN(C)CC5)CC4)cc3OC)ncc21` [Compound 132, 9-ethyl-6-((2-methoxy-4-(4-(4-methylpiperazin-1-yl)piperidin-1-yl)phenyl)amino)-2,4-dimethyl-4,9-dihydro-10H-pyrimido[5,4-b]thiazolo[5,4-e][1,4]diazepin-10-one], the half-maximal inhibitory concentration (IC50) was 18.8 nM on PTK2 (FAK), > 10 µM in the assay with MDA-MB-231 cells [1] and 0.93 µM in the assay on MDA-MB-231 cells [2].
The like results for `CCN1c2nc(Nc3ccc(N4CCC(N5CCN(C)CC5)CC4)cc3OC)ncc2N(C)C(=O)c2nc(C)sc21` [Compound 159, 4-ethyl-6-((2-methoxy-4-(4-(4-methylpiperazin-1-yl)piperidin-1-yl)phenyl)amino)-2,9-dimethyl-4,9-dihydro-10H-pyrimido[5,4-b]thiazolo[5,4-e][1,4]diazepin-10-one] were, in that order, 22.9 nM, > 10 µM and > 10 µM.
As for `CNC(=O)c1ccc(Nc2ncc3c(n2)N(C)c2sc(C)nc2C(=O)N3C)cc1` [Compound 197, N-methyl-4-((2,4,9-trimethyl-10-oxo-9,10-dihydro-4H-pyrimido[5,4-b]thiazolo[5,4-e][1,4]diazepin-6-yl)amino)benzamide], the values for the 50% inhibitory concentration (IC50) on PTK2 (FAK), in the assay with MDA-MB-231 cells [1] and in the assay on MDA-MB-231 cells [2] were 173 nM, > 10 µM and 5.9 µM, respectively.
For the compound `COc1cc(N2CCN(S(C)(=O)=O)CC2)ccc1Nc1ncc2c(n1)N(C)c1sc(C)nc1C(=O)N2C` [Compound 198, 6-((2-methoxy-4-(4-(methylsulfonyl)piperazin-1-yl)phenyl)amino)-2,4,9-trimethyl-4,9-dihydro-10H-pyrimido[5,4-b]thiazolo[5,4-e][1,4]diazepin-10-one], the half-inhibitory concentration (IC50) on PTK2 (FAK) is 46.9 nM; in the assay with MDA-MB-231 cells [1], > 10 µM; in the assay with MDA-MB-231 cells [2], > 10 µM.
